Experimental data published in US7666901B2, “Analogs of 17-hydroxywortmannin as PI3K inhibitors” (Wyeth, priority 2004, dated 2010).

Key:
[1] = tested on: HER2/Neu-overexpressing MDA361-DYT2 breast tumor cells; assay: Tumor cell growth assay, HKI-272 and combination, MDA361-DYT2; format: cell-based, human; conditions: compound 4 at 0.1 μg/ml; MDA361-DYT2
Procedure: (§1) Human tumor cell are all obtained from ATCC, and are cultured using standard cell culture methods. Cells are plated in 96-well culture plates at 1000 to 3000 cells per well. One day following plating, cells are treated with various doses of PI3K inhibitor Compound 4 or Compound 5 alone or with a low constant dose of MEK inhibitor 2-(2-chloro-4-iodoanilino)-N-(cycloprorylmethoxy-3,4-difluobenzamide) (1 μg/ml) or UO126 (5 μg/ml). UO126 is also known as 1,4-diamino-2,3-dicyano-1,4-bis[2-aminophenylthio]butadiene. In some experiments, cells are treated alone with various doses of the MEK inhibitor (2-(2-chloro-4-iodoanilino)-N-(cycloprorylmethoxy-3,4-difluobenzamide)), or HER2/neu inhibitor HKI-272, or mTOR inhibitor CCI-779, or with a low constant dose of Compound 4 (0.1 μg/ml). […] Three days after drug treatment, viable cell densities are determined by metabolic conversion (by viable cells) of the dye MTS, an established cell proliferation assay. […] The MTS assay results are read in a 96-well plate reader by measuring absorbance at 490 nm. The effect of each treatment is calculated as percent of control growth relative to the vehicle DMSO-treated cells grown in the same culture plate. […]

[2] = tested on: MDA435 (human breast adenocarcinoma); assay: Cell proliferation (MTS) assay, MDA435; format: cell-based; conditions: three days treatment
Summary of the method: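 Cells plated at about 3000 per well in RPMI-1640/10% FBS were dosed with compound one day later. Viability was read by MTS conversion (absorbance 490 nm, 1–2 h) three days after treatment began. Effect is expressed as percent of vehicle-treated growth on the same plate.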

[3] = tested on: panel of seven colon tumor lines; assay: Tumor cell growth assay, combination with MEK inhibitor, colon panel; format: cell-based, human
Procedure: as §1

[4] = tested on: DU145 prostrate tumor cells; assay: Tumor cell growth assay, combination with MEK inhibitor, DU145; format: cell-based, human
Procedure: as §1

colon tumor cell lines = assay: Tumor cell growth assay, combination with CCI-779, colon lines; format: cell-based, human; conditions: compound 4 at 0.1 μg/ml
Procedure: as §1

[5] = tested on: non-small cell lung cancer (NSCLC) cell lines; assay: Tumor cell growth assay, combination with MEK inhibitor, NSCLC; format: cell-based, human
Procedure: as §1

[6] = tested on: MDA231 breast tumor cells; assay: Tumor cell growth assay, combination with MEK inhibitor, MDA231; format: cell-based, human
Procedure: as §1

Human TOR = molecular target: T1, Human TOR (Homo sapiens, UniProt P42345); assay: Human TOR (mTOR) kinase assay, DELFIA format; format: biochemical
T1 construct: FLAG
Summary of the method: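 Purified FLAG-TOR (800 ng/mL) phosphorylates His6-S6K ([…]) with […] ATP in Hepes pH 7.4 buffer containing MnCl2, 2 h at room temperature. Phospho-Thr389 S6K detected by DELFIA using Europium-labelled anti-P(T389)-p70S6K antibody; enzyme inhibition calculated from signal.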

COC[C@H]1OC(=O)/C(=C/N(CCO)C(C)(C)C)C2=C(O)C(=O)C3=C([C@H](OC(C)=O)C[C@@]4(C)C3CC[C@@H]4O)[C@]21C (stereo partly drawn) [Compound 4, (1E,4S,4aR,5R,6aS,7S)-1-{[tert-butyl(2-hydroxyethyl)amino]methylene}-7,11-dihydroxy-4-(methoxymethyl)-4a,6a-dimethyl-2,10-dioxo-1,2,4,4a,5,6,6a,7,8,9,9a,10-dodecahydroindeno[4,5-h]isochromen-5-yl acetate]
growth inhibition in combination with HER2/neu inhibitor HKI-272 [1]: synergistically inhibited growth | MDA435 IC50 ([2]; Table 1): 6 µg/mL | MDA435 IC50 ([2]; Table 2): 3.5 µg/mL | growth inhibition in combination with MEK inhibitor 2-(2-chloro-4-iodoanilino)-N-(cycloprorylmethoxy-3,4-difluobenzamide) [3]: synergistic growth inhibition | growth inhibition in combination with MEK inhibitor 2-(2-chloro-4-iodoanilino)-N-(cycloprorylmethoxy-3,4-difluobenzamide) [4]: synergistic growth inhibition | growth inhibition in combination with mTOR inhibitor CCI-779 (colon tumor cell lines): synergistically inhibited growth | growth inhibition in combination with MEK inhibitor 2-(2-chloro-4-iodoanilino)-N-(cycloprorylmethoxy-3,4-difluobenzamide) [5]: synergistic growth inhibition | growth inhibition in combination with MEK inhibitor 2-(2-chloro-4-iodoanilino)-N-(cycloprorylmethoxy-3,4-difluobenzamide) [6]: synergistic growth inhibition | TOR IC50 (Human TOR; Table 1): 16 µg/mL | TOR IC50 (Human TOR; Table 2): >10 µg/mL
